According to patent US20040002842A1, “Methods and systems for analyzing complex biological systems” (priority 2001, published 2004):

Key:
[1] = system: Arabidopsis thaliana plants; assay: SOA1 phenotypic analysis of herbicide-treated plants (incl. MIC/Tmic); assay type: in vivo; conditions: herbicide-treated plants
[2] = system: Arabidopsis thaliana plants; assay: SOA1 gene expression analysis (60mer microarray, 6200 genes) of herbicide-treated tissue; conditions: SOA1 profiles
[3] = system: Saccharomyces cerevisiae wild type strain BY4743; assay: AF1 yeast gene expression analysis (microarray, KEGG pathway mapping); assay type: cell-based
Method: Saccharomyces cerevisiae wild type strain BY4743 was purchased from American Type Culture Center (ATCC, Manassas, Va.). The yeast strain was grown in YPD or SD media. H. […] The cultures started from fresh single colonies were grown in 1.0 ml YPD overnight at 30° C. […] The OD600 was adjusted to 1.0 with YPD media, then 2.0 ml of each was inoculated into three 250 ml flasks, each containing 50 ml of SD media. […] The cells were kept growing for another two hours, then collected by centrifugation at 4000 rpm for 5 minutes at 4° C. Pellets were washed once with ice-cold water, then were lyophilized overnight at 4° C. […] Tubes were vortexed for 30 seconds, then incubated for 10 minutes at room temperature (RT). […] Tubes were incubated for 10 minutes at RT. Samples were centrifuged for 20 minutes as before. Pellets were washed with 400 μl 70% ethanol and centrifuged for 10 minutes as before. The pellet was then dissolved in 100 μl nuclease-free water. RNA quality was determined using the Bioanalyzer 2100 and the RNA 6000 assay (Agilent Technologies, Palo Alto, Calif.) according to manufacturer's instructions. RNA concentrations were determined spectrophotometrically by measuring the absorption at 260 nm in an Ultrospec 2000 (Pharmacia Biotech, Piscataway, N.J.). […] Labeled cRNAs were evaluated using the RNA 6000 assay on the Agilent Bioanalyzer 2100. Labeled cRNA concentrations were determined spectrophotometrically by measuring the absorption at 260 nm in an Ultrospec 2000 (Pharmacia Biotech, Piscataway, N.J.). […] Each pair of samples to be hybridized were independently labeled and hybridized utilizing a fluor reversal for a total of two hybridizations per sample pair. The microarrays were scanned simultaneously in the Cy3 and Cy5 channels with Agilent's 48-slide, Dual Laser DNA Microarray Scanner (Agilent Technologies, Palo Alto, Calif.) at 10 μm resolution using default settings. Image Analysis Software (Version A.4.0.45, Agilent Technologies, Palo Alto, Calif.) was used for image analysis. Each feature was determined from an array's associated pattern file and a detection algorithm. Intensity values for each feature were determined after subtracting background derived from an average of negative control features. Features with unusual pixel intensity statistics (e.g., high non-uniformity, saturation in either channel, and the like) were excluded from downstream analyses. Data was loaded into the Rosetta RESOLVER database (Rosetta Inpharmatics Inc., Kirkland, Wash.) for storage and analysis. Data was evaluated after combining results from fluor reversal replicate hybridizations. The annotation of yeast ORFs was obtained from Proteome BIOKNOWLEDGE Library (Incyte Genomics, Palo Alto, Calif.). In AF1, two different technologies were utilized: gene expression analysis (for examination of mRNA expression) and metabolite analysis. […] As noted previously, existing metabolic databases may be helpful in practicing the methods and systems of the present invention, but many databases include limitations that make their use in data analysis and pathway mapping less than straightforward. […] This caveat to KEGG makes it difficult to pinpoint the correct pathway when attempting to link a gene to a specific pathway. The pathway score indicates how meaningful the mapping is, or how likely it is to be correctly indicative of the pathway involved in the perturbation under examination. The method provides a pathway score based on perturbation levels of genes and/or compounds and the information content of each gene and/or compound in the pathway, i.e., a pathway score indicates the extent to which other pathways are mapped to a gene/compound. For example, imagine that two genes are perturbed in a particular experiment.

[4] = system: Saccharomyces cerevisiae wild type strain BY4743; assay: AF1 yeast metabolite analysis by GC-MS and LC-MS; assay type: cell-based; conditions: for # Compounds perturbed by treatment: 2×MIC, two hours
[5] = system: Saccharomyces cerevisiae wild type strain BY4743; assay: AF1 combined gene expression and metabolite data (reactions, pathways, cluster analysis); assay type: cell-based
Source text: The data were then combined to determine the number of reactions showing an enzyme and at least one compound perturbed, and to determine the number of pathways having at least one enzyme and one perturbed compound perturbed. The results of the analysis are represented in Tables 16 and 17, and were difficult to interpret, illustrating that the ability to draw conclusions from compound mapping to pathways is limited when absent additional data. […] A coherent data set was created from data obtained from the four above-described drug compounds. The data were reduced by using principle components analysis and cluster analysis.

Question: Which “characteristic symptoms (morphological phenotype)” value [1] does the source give for `COC(=O)c1cc(Oc2ccc(Cl)cc2Cl)ccc1[N+](=O)[O-]` [Bifenox] here?
Answer: Necrotic leaf flecks

Question: And the “gene expression profile correlation to acifluorfen (r)” value [2]?
Answer: 0.151

Question: `CCc1cccc(C)c1N(C(=O)CCl)C(C)COC` (stereo not drawn) [Metolachlor] was tested. Which “gene expression profile correlation with bifenox (r)” value [2] did it give?
Answer: 0.499

Question: And the “gene expression profile correlation with diquat (r)” value [2]?
Answer: 0.569

Question: Which results are given for `CC[C@@H]([C@H](C)O)n1ncn(-c2ccc(N3CCN(c4ccc(OC[C@@H]5CO[C@@](Cn6cncn6)(c6ccc(F)cc6F)C5)cc4)CC3)cc2)c1=O` [Posaconazole]?
Answer: # Transcripts perturbed by treatment ([3]; P < 0.05, 2×MIC, two hours): 690; Number of Pathways Affected by at Least One Gene, # Pathways ([3]; p < 0.05, KEGG mapping): 69; # Compounds perturbed by treatment ([4]; P < 0.05): 3; # Compounds perturbed by treatment ([4]; P < 0.1): 4; Fold Change: alanine ([4]; Platform GC): 1.035; Fold Change: asparagine ([4]; Platform GC): 0.145; Fold Change: aspartic acid ([4]; Platform GC): −0.071; Fold Change: campesterol ([4]; Platform GC): 0; Fold Change: desmosterol ([4]; Platform GC): 0; Fold Change: disaccaride1 ([4]; Platform GC): 0.04733; Fold Change: disaccaride2 ([4]; Platform GC): 0.313; Fold Change: disaccaride3 ([4]; Platform GC): 0.3407; Fold Change: ergosterol ([4]; Platform GC): 0.808; Fold Change: fucosterol ([4]; Platform GC): 6.722; Fold Change: glutamine ([4]; Platform GC): 0.6439; Fold Change: glycanopyrose ([4]; Platform GC): 1.594; Fold Change: glycerol ([4]; Platform GC): 0.1873; Fold Change: glycine ([4]; Platform GC): 0.08267; Fold Change: hexadecanoic acid ([4]; Platform GC): −0.01867; Fold Change: iso citric acid ([4]; Platform GC): 0.4; Fold Change: isoleucine ([4]; Platform GC): 0.1023; Fold Change: lanosterol ([4]; Platform GC): 7.464; Fold Change: leucine ([4]; Platform GC): 0.334; Fold Change: lysine ([4]; Platform GC): 0.1586; Fold Change: malic acid ([4]; Platform GC): 0.2942; Fold Change: 2-ketobutyric acid ([4]; Platform nLC): −0.9992; Fold Change: 2-ketoglutaric ([4]; Platform nLC): 11.33; Fold Change: 3-indolylacetonitri ([4]; Platform nLC): −0.9998; Fold Change: 4-methylcatechol ([4]; Platform nLC): 0; Fold Change: 4aminobutyrate/dimg ([4]; Platform nLC): −0.008939; Fold Change: 5hydroxyLtryptophan ([4]; Platform nLC): 0; Fold Change: 6-benzylaminopurine ([4]; Platform nLC): 0; Fold Change: DLaminoadipic acid ([4]; Platform nLC): −0.9935; Fold Change: abscisic acid ([4]; Platform nLC): 0; Fold Change: aconitic acid ([4]; Platform nLC): 1.874; Fold Change: adenine ([4]; Platform nLC): 0; Fold Change: adenosine ([4]; Platform nLC): 128.3; Fold Change: alanine ([4]; Platform nLC): 0.1091; Fold Change: allantoic acid ([4]; Platform nLC): 0.3321; Fold Change: allantoin ([4]; Platform nLC): 5.97; Fold Change: anthranilic acid ([4]; Platform nLC): 0; Fold Change: arginine ([4]; Platform nLC): 0.1707; Fold Change: argininosuccinate ([4]; Platform nLC): 318.3; Fold Change: asparagine ([4]; Platform nLC): 0.006865; Fold Change: aspartic ([4]; Platform nLC): 0.305; Fold Change: benzoic acid ([4]; Platform nLC): 0; Fold Change: biotin ([4]; Platform nLC): −0.9992; Fold Change: caffeic acid ([4]; Platform nLC): −0.49; Fold Change: catechol ([4]; Platform nLC): 0; Fold Change: cinnamic acid ([4]; Platform nLC): 0; Fold Change: citricanoic/itaconi ([4]; Platform nLC): 0; Fold Change: citrulline ([4]; Platform nLC): 1160; Fold Change: coumaric acid ([4]; Platform nLC): 0; Fold Change: cytidine ([4]; Platform nLC): −0.9986; Fold Change: cytosine ([4]; Platform nLC): 0; Fold Change: decanoic acid ([4]; Platform nLC): 0.1263; Fold Change: diaminopimelic acid ([4]; Platform nLC): 0; Fold Change: dihydrofolic acid ([4]; Platform nLC): 0; Fold Change: estrone ([4]; Platform nLC): 0; Fold Change: farnesol ([4]; Platform nLC): 0; Fold Change: folic acid ([4]; Platform nLC): 0; Fold Change: fumaric/3m2oxobutan ([4]; Platform nLC): −0.9997; Fold Change: gallic acid ([4]; Platform nLC): 0.4414; Fold Change: gibberellic ([4]; Platform nLC): 0; Fold Change: glucosamine6PO4 ([4]; Platform nLC): −0.9951; Fold Change: glutamic/acetylseri ([4]; Platform nLC): 0.3222; Fold Change: glutamine/lysine ([4]; Platform nLC): 0.09814; Fold Change: guanine ([4]; Platform nLC): 0; Fold Change: guanosine ([4]; Platform nLC): −0.993; Fold Change: histidine ([4]; Platform nLC): 0; Fold Change: homogentisic/uric ([4]; Platform nLC): 0; Fold Change: hydrocortisone ([4]; Platform nLC): 0; Fold Change: hypoxanthine ([4]; Platform nLC): 0.1751; Fold Change: indole3pyruvic acid ([4]; Platform nLC): 0; Fold Change: inostol/glucos/sorb ([4]; Platform nLC): −0.493; Fold Change: isocitric/citric/qu ([4]; Platform nLC): 1.711; Fold Change: jasmonic acid ([4]; Platform nLC): 0; Fold Change: kinetin ([4]; Platform nLC): 0; Fold Change: lactic acid ([4]; Platform nLC): 0.5987; Fold Change: lauric acid ([4]; Platform nLC): 0.9833; Fold Change: leucine/isoleucine/ ([4]; Platform nLC): 0.03158; Fold Change: luteolin ([4]; Platform nLC): 0; Fold Change: malic acid ([4]; Platform nLC): 0.3101; Fold Change: malonic acid ([4]; Platform nLC): 0; Fold Change: menthol* ([4]; Platform nLC): 0.08121; Fold Change: methionine ([4]; Platform nLC): 0; Fold Change: 4-aminobenzoic acid ([4]; Platform pLC): 0; Fold Change: 4-methylcatechol ([4]; Platform pLC): 0; Fold Change: 4ambutyrate/dimglyc ([4]; Platform pLC): 31.37; Fold Change: 5hydroxyLtryptophan ([4]; Platform pLC): 0; Fold Change: 6benzylaminopurine ([4]; Platform pLC): 0; Fold Change: DL-aminoadipic acid ([4]; Platform pLC): 1.685; Fold Change: abscisic acid ([4]; Platform pLC): 0; Fold Change: adenine ([4]; Platform pLC): −0.0145; Fold Change: adenosine ([4]; Platform pLC): 0; Fold Change: alanine/sarcosine ([4]; Platform pLC): 0.1013; Fold Change: allantoic acid ([4]; Platform pLC): 0; Fold Change: anthranilic acid ([4]; Platform pLC): 0; Fold Change: arginine ([4]; Platform pLC): 0.03383; Fold Change: argininosuccinate ([4]; Platform pLC): 0; Fold Change: asparagine ([4]; Platform pLC): 0.4302; Fold Change: aspartic acid ([4]; Platform pLC): 0.3626; Fold Change: biotin ([4]; Platform pLC): 0; Fold Change: caffeine ([4]; Platform pLC): 0; Fold Change: citric acid TME ([4]; Platform pLC): 0; Fold Change: citrulline ([4]; Platform pLC): 0.1011; Fold Change: cytidine ([4]; Platform pLC): 0; Fold Change: cytosine ([4]; Platform pLC): 1135; Fold Change: diaminopimelic acid ([4]; Platform pLC): 0; Fold Change: dihydrofolic acid ([4]; Platform pLC): 0; Fold Change: dipicolinic acid ([4]; Platform pLC): 0; Fold Change: folic acid ([4]; Platform pLC): 0; Fold Change: glucosamine ([4]; Platform pLC): 0; Fold Change: glucosamine6PO4 ([4]; Platform pLC): 0; Fold Change: glutamate ([4]; Platform pLC): 0.3769; Fold Change: glutamine/lysine ([4]; Platform pLC): 0.303; Fold Change: glutathione ([4]; Platform pLC): 0.0101; Fold Change: guanosine ([4]; Platform pLC): 0.04655; Fold Change: histidine ([4]; Platform pLC): 0; Fold Change: hydrocortisone ([4]; Platform pLC): 0; Fold Change: hypoxanthine ([4]; Platform pLC): 0.135; Fold Change: itaconic acid dimes ([4]; Platform pLC): 0; Fold Change: kinetin ([4]; Platform pLC): 0; Fold Change: leucine/isoleucine/ ([4]; Platform pLC): 0.04937; Fold Change: luteolin ([4]; Platform pLC): 0; Fold Change: mannitol ([4]; Platform pLC): 0.3919; Fold Change: methionine ([4]; Platform pLC): −0.3997; Number of Reactions Having an Enzyme and at Least One Compound Perturbed, # Reactions [5]: 0
